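Five compound concentrations were applied to cells in 96-well plates for 48 hours; endpoints were derived by simple linear interpolation of the resulting dose-response curve. The concentration for 50% growth inhibition is given as GI50.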 Active and inactive are the calls of the source. Cut-off read from the data, not from the text of the source: active = GI50 up to about 1.1 µM and inactive = higher.
Assays:
Assay in all cases: DTP human tumour cell line panel, 48 h
786-0 = tested on: 786-0
A498 = tested on: A498
A549 = tested on: A549
ACHN = tested on: ACHN
BT-549 = tested on: BT-549
CAKI-1 = tested on: CAKI-1
CCRF-CEM = tested on: CCRF-CEM
COLO 205 = tested on: COLO 205
DU-145 = tested on: DU-145
EKVX = tested on: EKVX
HCC 2998 = tested on: HCC 2998
HCT-116 = tested on: HCT-116
HCT-15 = tested on: HCT-15
HL-60 = tested on: HL-60
HOP-62 = tested on: HOP-62
HOP-92 = tested on: HOP-92
HT-29 = tested on: HT-29
Hs-578T = tested on: Hs-578T
IGROV-1 = tested on: IGROV-1
K562 = tested on: K562
KM12 = tested on: KM12
LOX IMVI = tested on: LOX IMVI
M14 = tested on: M14
MCF7 = tested on: MCF7
MDA-MB-231 = tested on: MDA-MB-231
MDA-MB-435 = tested on: MDA-MB-435
MDA-N = tested on: MDA-N
MOLT-4 = tested on: MOLT-4
Malme-3M = tested on: Malme-3M
NCI-H226 = tested on: NCI-H226
NCI-H23 = tested on: NCI-H23
NCI-H460 = tested on: NCI-H460
NCI-H522 = tested on: NCI-H522
OVCAR-3 = tested on: OVCAR-3
OVCAR-5 = tested on: OVCAR-5
OVCAR-8 = tested on: OVCAR-8
PC-3 = tested on: PC-3
RPMI-8226 = tested on: RPMI-8226
RXF 393 = tested on: RXF 393
SF-268 = tested on: SF-268
SF-295 = tested on: SF-295
SF-539 = tested on: SF-539
SK-MEL-28 = tested on: SK-MEL-28
SK-MEL-2 = tested on: SK-MEL-2
SK-MEL-5 = tested on: SK-MEL-5
SK-OV-3 = tested on: SK-OV-3
SN12C = tested on: SN12C
SNB-19 = tested on: SNB-19
SNB-75 = tested on: SNB-75
SR = tested on: SR
SW-620 = tested on: SW-620
T47D = tested on: T47D
TK-10 = tested on: TK-10
U-251 = tested on: U-251
UACC-257 = tested on: UACC-257
UACC-62 = tested on: UACC-62
UO-31 = tested on: UO-31
NCI/ADR-RES = tested on: NCI/ADR-RES
OVCAR-4 = tested on: OVCAR-4

Structure (SMILES): COc1cccc(C2c3cc4c(cc3OC(Nc3ccccc3)C2C)OCO4)c1OC (stereo not given)
- GI50 (786-0): 10.6 µM (inactive)
- GI50 (A498): 11.5 µM (inactive)
- GI50 (A549): 6.04 µM (inactive)
- GI50 (ACHN): 3.94 µM (inactive)
- GI50 (BT-549): 9.12 µM (inactive)
- GI50 (CAKI-1): 3.87 µM (inactive)
- GI50 (CCRF-CEM): 2.88 µM (inactive)
- GI50 (COLO 205): 4.98 µM (inactive)
- GI50 (DU-145): 7.08 µM (inactive)
- GI50 (EKVX): 19.8 µM (inactive)
- GI50 (HCC 2998): 74.1 µM (inactive)
- GI50 (HCT-116): 3.52 µM (inactive)
- GI50 (HCT-15): 4.37 µM
- GI50 (HL-60): 2.1 µM (inactive)
- GI50 (HOP-62): 15 µM (inactive)
- GI50 (HOP-92): 5.43 µM (inactive)
- GI50 (HT-29): 11.2 µM (inactive)
- GI50 (Hs-578T): 3.08 µM (inactive)
- GI50 (IGROV-1): 14.9 µM (inactive)
- GI50 (K562): 2.64 µM (inactive)
- GI50 (KM12): 4.02 µM (inactive)
- GI50 (LOX IMVI): 3.77 µM (inactive)
- GI50 (M14): 67.6 µM (inactive)
- GI50 (MCF7): 6.89 µM (inactive)
- GI50 (MDA-MB-231): 13.7 µM (inactive)
- GI50 (MDA-MB-435): 14.8 µM (inactive)
- GI50 (MDA-N): 34.8 µM (inactive)
- GI50 (MOLT-4): 1.81 µM (inactive)
- GI50 (Malme-3M): 6.31 µM (inactive)
- GI50 (NCI-H226): 1.84 µM (inactive)
- GI50 (NCI-H23): 42 µM (inactive)
- GI50 (NCI-H460): 3.43 µM (inactive)
- GI50 (NCI-H522): 3.36 µM (inactive)
- GI50 (OVCAR-3): 5.36 µM (inactive)
- GI50 (OVCAR-5): 44.5 µM (inactive)
- GI50 (OVCAR-8): 16.3 µM (inactive)
- GI50 (PC-3): 4.47 µM (inactive)
- GI50 (RPMI-8226): 1.64 µM (inactive)
- GI50 (RXF 393): 3.66 µM (inactive)
- GI50 (SF-268): 8.73 µM (inactive)
- GI50 (SF-295): 5.55 µM (inactive)
- GI50 (SF-539): 13.2 µM (inactive)
- GI50 (SK-MEL-28): 41.3 µM (inactive)
- GI50 (SK-MEL-2): 4.55 µM (inactive)
- GI50 (SK-MEL-5): 6.5 µM (inactive)
- GI50 (SK-OV-3): 7.59 µM (inactive)
- GI50 (SN12C): 6.4 µM (inactive)
- GI50 (SNB-19): > 100 µM (inactive)
- GI50 (SNB-75): 20.5 µM (inactive)
- GI50 (SR): 0.809 µM (active)
- GI50 (SW-620): 7.85 µM (inactive)
- GI50 (T47D): 5.14 µM (inactive)
- GI50 (TK-10): 6.46 µM (inactive)
- GI50 (U-251): 5.94 µM (inactive)
- GI50 (UACC-257): 35.6 µM (inactive)
- GI50 (UACC-62): 9.55 µM (inactive)
- GI50 (UO-31): 4.19 µM (inactive)

Structure (SMILES): Cc1ccc(SCC(CF)OC(C)n2cnc3c(Cl)nc(N)nc32)cc1 (stereo not given)
- GI50 (786-0): 58.7 µM (inactive)
- GI50 (A549): 44.7 µM (inactive)
- GI50 (ACHN): 35.2 µM (inactive)
- GI50 (BT-549): 16 µM (inactive)
- GI50 (CAKI-1): 84.7 µM (inactive)
- GI50 (CCRF-CEM): 81.1 µM (inactive)
- GI50 (COLO 205): > 100 µM (inactive)
- GI50 (DU-145): > 100 µM (inactive)
- GI50 (HCC 2998): > 100 µM (inactive)
- GI50 (HCT-116): 55.1 µM (inactive)
- GI50 (HCT-15): > 100 µM
- GI50 (HL-60): 22.7 µM (inactive)
- GI50 (HOP-62): > 100 µM (inactive)
- GI50 (HOP-92): 59.8 µM (inactive)
- GI50 (HT-29): > 100 µM (inactive)
- GI50 (Hs-578T): > 100 µM (inactive)
- GI50 (IGROV-1): > 100 µM (inactive)
- GI50 (KM12): > 100 µM (inactive)
- GI50 (LOX IMVI): 70.8 µM (inactive)
- GI50 (M14): > 100 µM (inactive)
- GI50 (MCF7): 27.2 µM (inactive)
- GI50 (MDA-MB-231): 46.6 µM (inactive)
- GI50 (MDA-MB-435): 78.3 µM (inactive)
- GI50 (MDA-N): 89.1 µM (inactive)
- GI50 (MOLT-4): 25.8 µM (inactive)
- GI50 (Malme-3M): 93.5 µM (inactive)
- GI50 (NCI-H226): > 100 µM (inactive)
- GI50 (NCI-H23): 57.4 µM (inactive)
- GI50 (NCI-H460): 53 µM (inactive)
- GI50 (NCI-H522): 18.7 µM (inactive)
- GI50 (NCI/ADR-RES): 25.1 µM (inactive)
- GI50 (OVCAR-3): 85.7 µM (inactive)
- GI50 (OVCAR-4): 16 µM (inactive)
- GI50 (OVCAR-5): > 100 µM (inactive)
- GI50 (OVCAR-8): 69.7 µM (inactive)
- GI50 (PC-3): 90.6 µM (inactive)
- GI50 (RPMI-8226): > 100 µM (inactive)
- GI50 (SF-268): 96.8 µM (inactive)
- GI50 (SF-295): 67.9 µM (inactive)
- GI50 (SF-539): > 100 µM (inactive)
- GI50 (SK-MEL-28): > 100 µM (inactive)
- GI50 (SK-MEL-2): 69.8 µM (inactive)
- GI50 (SK-MEL-5): 17.3 µM (inactive)
- GI50 (SK-OV-3): 37.2 µM (inactive)
- GI50 (SN12C): 43.3 µM (inactive)
- GI50 (SNB-19): > 100 µM (inactive)
- GI50 (SNB-75): > 100 µM (inactive)
- GI50 (SR): 40 µM (inactive)
- GI50 (SW-620): > 100 µM (inactive)
- GI50 (T47D): 54.6 µM (inactive)
- GI50 (TK-10): > 100 µM (inactive)
- GI50 (U-251): > 100 µM (inactive)
- GI50 (UACC-257): 19.3 µM (inactive)
- GI50 (UACC-62): > 100 µM (inactive)
- GI50 (UO-31): 42.5 µM (inactive)

Structure (SMILES): CC[C@@H]1CC[C@@H]2[C@H](CC[C@]3(C)[C@@H](OC(C)=O)CC[C@@H]23)[C@H]1C(=O)OC
- GI50 (786-0): 23.4 µM (inactive)
- GI50 (A498): > 100 µM (inactive)
- GI50 (A549): 24.4 µM (inactive)
- GI50 (ACHN): 40 µM (inactive)
- GI50 (BT-549): 34.4 µM (inactive)
- GI50 (CAKI-1): 35.3 µM (inactive)
- GI50 (CCRF-CEM): 22.1 µM (inactive)
- GI50 (COLO 205): 16 µM (inactive)
- GI50 (DU-145): 27.4 µM (inactive)
- GI50 (EKVX): 25.2 µM (inactive)
- GI50 (HCC 2998): 97.9 µM (inactive)
- GI50 (HCT-116): 17.9 µM (inactive)
- GI50 (HCT-15): 22 µM
- GI50 (HL-60): 13.3 µM (inactive)
- GI50 (HOP-62): 24.9 µM (inactive)
- GI50 (HOP-92): 13.4 µM (inactive)
- GI50 (HT-29): 25 µM (inactive)
- GI50 (Hs-578T): 46.1 µM (inactive)
- GI50 (IGROV-1): 24.8 µM (inactive)
- GI50 (K562): 20 µM (inactive)
- GI50 (KM12): 22.5 µM (inactive)
- GI50 (LOX IMVI): 20 µM (inactive)
- GI50 (M14): 19.6 µM (inactive)
- GI50 (MCF7): 25 µM (inactive)
- GI50 (MDA-MB-231): 20.6 µM (inactive)
- GI50 (MDA-MB-435): 20.9 µM (inactive)
- GI50 (MDA-N): 19.5 µM (inactive)
- GI50 (MOLT-4): 19.5 µM (inactive)
- GI50 (Malme-3M): 17.3 µM (inactive)
- GI50 (NCI-H226): 18.8 µM (inactive)
- GI50 (NCI-H23): 24.4 µM (inactive)
- GI50 (NCI-H460): 23 µM (inactive)
- GI50 (NCI-H522): 27.2 µM (inactive)
- GI50 (NCI/ADR-RES): 26.9 µM (inactive)
- GI50 (OVCAR-3): 19.4 µM (inactive)
- GI50 (OVCAR-4): 19.9 µM (inactive)
- GI50 (OVCAR-5): 23.1 µM (inactive)
- GI50 (OVCAR-8): 27.9 µM (inactive)
- GI50 (PC-3): 23.7 µM (inactive)
- GI50 (RPMI-8226): 19.6 µM (inactive)
- GI50 (RXF 393): 24.6 µM (inactive)
- GI50 (SF-268): 23.4 µM (inactive)
- GI50 (SF-295): 21 µM (inactive)
- GI50 (SF-539): 19.2 µM (inactive)
- GI50 (SK-MEL-28): 32.2 µM (inactive)
- GI50 (SK-MEL-2): 20.1 µM (inactive)
- GI50 (SK-MEL-5): 14.6 µM (inactive)
- GI50 (SK-OV-3): > 100 µM (inactive)
- GI50 (SN12C): 25.2 µM (inactive)
- GI50 (SNB-19): 25.4 µM (inactive)
- GI50 (SNB-75): 22.3 µM (inactive)
- GI50 (SW-620): 21.8 µM (inactive)
- GI50 (T47D): 21.8 µM (inactive)
- GI50 (TK-10): > 100 µM (inactive)
- GI50 (U-251): 21.2 µM (inactive)
- GI50 (UACC-257): 25.3 µM (inactive)
- GI50 (UACC-62): 20.1 µM (inactive)
- GI50 (UO-31): 33.7 µM (inactive)

Reference: ChEMBL document CHEMBL1201862, “PubChem BioAssay data set” (2004)
